According to US9957230B2, “Synergistic compositions” (Cadila Healthcare Limited, priority 2013, dated 2018):
Counter-ions that a name gives are not always drawn.

Tests used:
db/db mice [1] = experiment: Antidiabetic activity with Vildagliptin and Metformin in db/db mice (study IV): non-fasting serum glucose; format: in vivo; details: Vildagliptin 1 mg/kg
Description: The in-vivo efficacy for antidiabetic activity was done female db/db mice of 10-15 weeks of age.
1. […] 17. The treatment was given oral gavages once daily for 14 days.
The OGTT procedure followed is as given below—

db/db mice [2] = experiment: Oral glucose tolerance test in db/db mice (studies VII and VIII); format: in vivo; details: for AUC Glucose: OGTT day 7, fasting, glucose load 2 gm/kg
Description: In this experiment, 49 db/db mice of 12-16 week were divided into 7 groups and as per their day 0 serum glucose levels. […] Detail treatments and routes of administrations were mentioned in Table no. 27. The treatment was given once daily for 7 days.
The blood was collected by retro-orbital sinus puncture method under light ether anesthesia on day 0 (pretreatment) and on day 6 (one hour after dose administration) for non-fasting glucose analysis and oral glucose tolerance test (OGTT) was performed on day 7 of the treatment in fasting condition. After blood collection serum was separated and analyzed glucose analysis using Spectra max and commercial diagnostic kits. The OGTT procedure followed is as given below—
Oral Glucose Tolerance Test (OGTT): One day before OGTT all animals were kept on overnight fasting and on the day of OGTT, day 7 of the treatment each animal was dosed with a single dose of vehicle/test compounds administered orally and 60-min post dosing blood was collected (0 min) and glucose load (2 gm/kg/10 ml) administered per orally. Blood was then collected at time points corresponding to 30, 60 and 120 min after glucose load administration. Serum was separated and analyzed for glucose using Spectra max and commercial diagnostic kits.
The calculation for antidiabetic activity i.e. effect on serum glucose and improvement in glucose Area Under Curve (AUC) was calculated using the excel sheet and Graph Pad Prism software. The day-0 and day-6 glucose values of vehicle control and treatment were considered for calculating the effect on serum glucose. The effect on glucose AUC was calculated using the OGTT glucose levels at different time points and the improvement in glucose AUC were the reduction in glucose AUC after the treatment during OGTT.

In the case of `CCO[C@@H](Cc1ccc(OCCn2c(C)ccc2-c2ccc(SC)cc2)cc1)C(=O)O` [Compound (Ia), Benzenepropanoic acid, α-ethoxy-4-[2-[2-methyl-5-[4-(methylthio)phenyl]-1H -pyrrol-1-yl]ethoxy]-, magnesium salt], the “Serum Glucose (mg/dl) Day 0” value (db/db mice [1]; Table 18, Day 0 (pretreatment), female db/db mice, Compound Ia 0.1 mg/kg, Metformin 100 mg/kg p.o. once daily) is reported as 375.4 mg/dL, the “Serum Glucose (mg/dl) Day 12” value (db/db mice [1]; Table 18, Day 12, one hour after dose, non-fasting, Compound Ia 0.1 mg/kg, Metformin 100 mg/kg p.o. once daily) is reported as 209.0 mg/dL and the “% Change Vs control” value (db/db mice [1]; Table 18, serum glucose day 12 vs vehicle control, Compound Ia 0.1 mg/kg, Metformin 100 mg/kg) is reported as −34.3%. The “% Change Day 12 vs Day 0” value (db/db mice [1]; Table 18, serum glucose, Compound Ia 0.1 mg/kg, Metformin 100 mg/kg) was −43.8%, the “reduction in serum glucose” value (db/db mice [1]; female db/db mice, Compound (Ia) 0.1 mg/kg, Metformin 100 mg/kg) was 34.3% and the “AUC Glucose” value (db/db mice [2]; Table 29, Compound Ia 0.1 mg/kg p.o., Exenatide 0.1 μg/kg i.p.) was 46452.6 mg·min/dL. For the same compound, the “% improvement in AUC glucose vs control” value (db/db mice [2]; Table 29 and text, OGTT day 7, Compound Ia 0.1 mg/kg p.o., Exenatide 0.1 μg/kg i.p.) was 23.7%, the “AUC Glucose” value (db/db mice [2]; Table 31, Compound Ia 0.1 mg/kg, Glimepiride 2 mg/kg p.o.) was 46452.6 mg·min/dL and the “% improvement in AUC glucose vs control” value (db/db mice [2]; Table 31 and text, OGTT after 7 days of treatment, Compound Ia 0.1 mg/kg, Glimepiride 2 mg/kg p.o.) was 23.7%.
